“Also recorded” adds a separate entry of the source. Read-outs that look alike come from different tables or passages of the source.

By IC50 is commonly meant the concentration that inhibits the measured activity by half. One may read the melting point as the temperature of the solid-liquid transition. For orientation: inhibition means how much of the control response was suppressed.

Series [1] concerns promastigotes of Leishmania mexicana. The series can be described thus: Leishmanicidal activity, MTT assay on promastigotes. Format: cell-based. The following applies: for SI (Selectivity Index) = Citotoxic activity/Leishmanicidal activity: CC50 RAW / IC50 L. mexicana; for IC50: Leishmania mexicana. On the procedure:
The leishmanicidal activity of all compounds was evaluated by measuring promastigotes’ mitochondrial activity using MTT colorimetric assay as described previously. In this study, promastigotes from Leishmania mexicana were used. The species were confirmed by amplifying and sequencing cytochrome b gene. Promastigotes were cultured at 25 °C in Schneider’s Drosophila Medium (Gibco, Invitrogen, Carlsbad, CA, USA) supplemented with 10% fetal bovine serum (Eurobio, Les Ulis, France). The medium was renewed every third day. Parasite density was determined by counting the cells using a Neubauer chamber.
Into each well of a 96-well plate were dispensed 1 × 10^6 parasites/well. A stock solution of the compounds was prepared in DMSO (Sigma Aldrich, Saint Louis, MO, USA), and serial dilutions were added to the parasite suspension, leading to concentrations ranging from 100 to 0.001 µM, keeping the solvent concentration at 0.5%. The final volume was 200 µL for each well and triplicate conditions were carried out. Amphotericin B (Gibco) treatment (1 µM) untreated parasites and DMSO 0.5% were used as positive and negative controls, respectively. After exposure to the compounds for 48 h in culture medium, 20 µL of a solution of 5 mg/mL MTT dissolved in PBS were added to each well. The plate was incubated at 25 °C for 2 h in darkness. The plate was then centrifuged at 4400 rpm for 10 min and the culture medium was then aspirated; 50 µL of DMSO were added into each well to solubilize the formazan crystals and the plate was shaken for 5 min and then it was measured by recording changes in absorbance at 570 nm using a microplate reader Cytation 5 (BioTek) spectrophotometer. A reference wavelength of 630 nm was used as background subtraction. Optical densities were analyzed because the quantity of formazan is directly proportional to the number of viable parasites. Data were analyzed with the statistical software GraphPad Prism 7.02 (GraphPad Software, Corp.).

The subject of series [2] is Leishmania mexicana cells. The series is described as follows: Comet assay of Leishmania mexicana cells. The settings on record: L. mexicana, 24 h at MIC; for Comet tail length, mean (vary) / Comet tail length, median (Q50): MMS 0.011%, Kruskal-Wallis $means; for Genotoxic effect (DNA breaks) in comet assay: in words. It is filed as cell-based. On the set-up: Comet tail length, mean (vary) / Comet tail length, median (Q50): unit not given here. The procedure:
We quantified DNA breaks by a comet assay to determine if these compounds are genotoxic. Here, L. mexicana cells were exposed for 24 h to MIC concentrations previously determined (see Materials and Methods Section) for each compound. Figure 1 represents the measurements obtained for tail length. All compounds generated DNA breaks expect 4s. […] Samples with DMSO and MMS (0.011%) were included as controls. Some representative pictures are shown at Figure S4. The effect of 4p could not be determined because the cells appear to be very damaged. The data was subjected via a Kruskal–Wallis one-way ANOVA (Statistical Analyses S2). […] These observations support a mechanism of action through the generation of DNA damage.
For leishmania, a method previously described for yeast was adapted. Briefly, after incubating the cells in presence of the compounds for 24 h, cells were collected and washed with buffer S (1 M sorbitol, 25 mM KH2PO4 in ultrapure water and adjust to pH 6.5 with NaOH). The pellet was resuspended in 400 µL of 1.5% LMA and 40 µL was spread (second layer) onto previously agarose-coated slides (first layer).
Slides were immersed in cold lysis buffer (30 mM NaOH, 1 M NaCl, 0.05 % (w/v) lauroylsarcosine, 50 mM EDTA, and 10 mM Tris–HCl, pH 10) for 25 min and then in cold electrophoresis alkaline buffer (30 mM NaOH, 10 mM EDTA, and 10 mM Tris–HCl, pH 10). They were then subjected to electrophoresis at 26V and 300 mA. Slides were immersed in neutralization buffer (10 mM Tris–HCl, pH 7.4; prepared in advance and stored at 4 °C) for 10 min at room temperature. The cells were then treated with proteinase K (20 min, 37 °C in humid chamber), followed by a new neutralization step. To dehydrate the slides, they were immersed in EtOH 90% and EtOH absolute for 10 min each. Finally, the slides were stained with Sybr Gold 1X.
The DNA migration was analyzed using a LEICA microscope with fluorescence (40×) by scoring 100 cells per slide in duplicate. The tail moment parameter was then analyzed by the Comet Score software.

The next series concerns PC-3. The series can be described thus: MTS cell viability assay on PC-3 cells. It is filed as cell-based. The following applies: Homo sapiens, 48 h; for inhibition at 100 µM: Dox 1 µM, mean ± SEM, NA = no activity, read-out: Percentage (%) of inhibition, PC-3; for IC50: 15-150 µM, mean ± SEM of triplicates. On the procedure: (§1) Five tumor human cancer cell lines—cerebral astrocytoma (D-384), grade IV prostatic adenocarcinoma (PC-3), mammary adenocarcinoma (MCF-7), human colon carcinoma (RKO) and lung carcinoma (A-549)—along with one immortalized hamster cell line (CHO K-1) were used. The cells PC-3, MCF-7 and RKO were cultured in RPMI-1640, D-384 on DMEM and CHO K-1 on HAM F-12 medium supplemented with 10% fetal bovine serum (FBS, Invitrogen, Karlsruhe, Germany), 1% antibiotic-antimitotic solution (100 units/mL penicillin G, 100 µg/mL streptomycin, and 0.25 µg/mL amphotericin B, Gibco, Grand Island, NY, USA), and 1% L-glutamine (2 mM, Gibco). The cells were incubated at 37 °C in a 5% CO2 atmosphere. The viable cells were counted using the trypan blue exclusion method in a hemocytometer.
(§2) The MTS (5-[3-(carboxymethoxy)phenyl]-3-(4,5-dimethyl-2-thiazolyl)-2-(4-sulfo- phenyl)-2H-tetrazolium inner salt) cell viability assay was used to assess the inhibitory effects of the extracts on the survival of human cancer cell lines. A total of 3–5 × 10^3 cells/well were seeded into 96-well plates and were allowed to adhere for 24 h. […] Each concentration/assay was performed three times. Dimethyl sulfoxide (DMSO) was used as a negative control at a final concentration of 0.1% v/v, and 1 µM Doxorubicin was used as a positive control. The cells were incubated with the treatments for 48 h, after which 20 µL MTS (5 mg/mL, Aqueous One Solution Reagent, Gibco) was added and further incubated for 4 h at 37 °C. The absorbance was measured at 570 nm. The data obtained with cells treated with DMSO were defined to represent 100% viability.
(Formazan colour is commonly taken as a measure of viable cells.)

The next series concerns A-549. The series is described as follows: MTS cell viability assay on A-549 cells. Format: cell-based. The settings on record: Homo sapiens, A549; 100 µM, 48 h; Dox 1 µM; mean ± SEM; NA = no activity; read-out: Percentage (%) of inhibition, A-549. The procedure:
as §1, §2

[3] abbreviates: read-out: IC50 original values, x.1 (Mean).
The mark [4] stands for this setting: L. mexicana promastigotes, 48 h, MTT, read-out: Leishmanicidal Activity IC50.

Compound `CC1=NN(c2ccccc2)C(=O)[C@@]12C(c1ccccc1)[C@@]21C(=O)N(c2ccccc2)N=C1C` (relative stereo) [4b, (5R*,6R*)-4,10-Dimethyl-2,8,11-triphenyl-2,3,8,9-tetraazadispiro[4.0.4.1]undeca-3,9-diene-1,7-dione] gave a melting point of 129 to 130 °C. The “SI (Selectivity Index) = Citotoxic activity/Leishmanicidal activity” value in series [1] is given as 21.3. In addition, the IC50 in series [1] (setting [3]) is 158 nM. For the same compound, the IC50 in series [1] (setting [4]) was determined as 160 nM. Besides, in series [2], the “Comet tail length, mean (vary)” value was determined as 50400000 and the “Comet tail length, median (Q50)” value amounted to 55000000. For the same compound, in the series with PC-3, the inhibition at 100 µM came to 17.6 ± 2.83%.
On to `CC1=NN(c2ccccc2)C(=O)[C@@]12C(c1ccccc1[N+](=O)[O-])[C@@]21C(=O)N(c2ccccc2)N=C1C` (relative stereo) [4c, (5R*,6R*)-11-(2-Nitrophenyl)-4,10-dimethyl-2,8-diphenyl-2,3,8,9-tetraazadispiro[4.0.4.1]undeca-3,9-diene-1,7-dione], for which the melting point was in the range of 165.1 to 165.5 °C. The “SI (Selectivity Index) = Citotoxic activity/Leishmanicidal activity” value in series [1] was 15.3. For the same compound, the IC50 in series [1] (setting [3]) amounted to 150 nM. The IC50 in series [1] (setting [4]) is 150 ± 40 nM. Besides, in the series with A-549, the inhibition at 100 µM was 6.1 ± 0.86%. For the same compound, in series [2], the “Comet tail length, mean (vary)” value was found to be 70710000 and the “Comet tail length, median (Q50)” value worked out at 72500000. Moreover, the inhibition at 100 µM in the series on PC-3 was found to be 11 ± 3.5%.
For the compound `CC1=NN(c2ccccc2)C(=O)[C@@]12C(c1cccc([N+](=O)[O-])c1)[C@@]21C(=O)N(c2ccccc2)N=C1C` (relative stereo) [4d, (5R*,6R*)-11-(3-Nitrophenyl)-4,10-dimethyl-2,8-diphenyl-2,3,8,9-tetraazadispiro[4.0.4.1]undeca-3,9-diene-1,7-dione], the melting point lay within 183.9 to 185 °C. For the same compound, the “SI (Selectivity Index) = Citotoxic activity/Leishmanicidal activity” value in series [1] came out at 26.0. In addition, the IC50 in series [1] (setting [3]) came out at 148 nM. Also, the IC50 in series [1] (setting [4]) came out at 150 ± 20 nM. In addition, the inhibition at 100 µM in the series on A-549 was 13.6 ± 0.74%. Further, in series [2], the “Comet tail length, mean (vary)” value came to 75120000 and the “Comet tail length, median (Q50)” value is reported as 83500000. Moreover, in the series on PC-3, the inhibition at 100 µM turned out to be 46.1 ± 1.91% and the half-maximal inhibitory concentration (IC50) amounted to 90.9 ± 2.56 µM.
Compound `COc1ccc(C2[C@@]3(C(=O)N(c4ccccc4)N=C3C)[C@]23C(=O)N(c2ccccc2)N=C3C)cc1` (relative stereo) [4e, (5R*,6R*)-11-(4-Methoxyphenyl)-4,10-dimethyl-2,8-diphenyl-2,3,8,9-tetraazadispiro[4.0.4.1]undeca-3,9-diene-1,7-dione] displayed a melting point of 163.5 to 165.7 °C. The “SI (Selectivity Index) = Citotoxic activity/Leishmanicidal activity” value in series [1] worked out at 4.9. Further, the IC50 in series [1] (setting [3]) turned out to be 1480 nM. Besides, the IC50 in series [1] (setting [4]) worked out at 1480 ± 250 nM. In addition, the inhibition at 100 µM in the series on A-549 was determined as 7.97 ± 1.46%. Further, in series [2], the “Comet tail length, mean (vary)” value turned out to be 65120000 and the “Comet tail length, median (Q50)” value was 64500000. For the same compound, the inhibition at 100 µM in the series with PC-3 is 17.9 ± 3.4%.
The compound `COc1ccccc1C1[C@@]2(C(=O)N(c3ccccc3)N=C2C)[C@]12C(=O)N(c1ccccc1)N=C2C` (relative stereo) [4f, (5R*,6R*)-11-(2-Methoxyphenyl)-4,10-dimethyl-2,8-diphenyl-2,3,8,9-tetraazadispiro[4.0.4.1]undeca-3,9-diene-1,7-dione] displayed a melting point of 147.8 to 149 °C. The “SI (Selectivity Index) = Citotoxic activity/Leishmanicidal activity” value in series [1] was 5.7. In addition, the IC50 in series [1] (setting [3]) worked out at 2230 nM. Further, the half-maximal inhibitory concentration (IC50) in series [1] (setting [4]) is 2230 ± 70 nM. Moreover, the inhibition at 100 µM in the series on A-549 worked out at 10.4 ± 3.28%. Besides, in series [2], the “Comet tail length, mean (vary)” value was 75100000 and the “Comet tail length, median (Q50)” value is given as 80500000. The inhibition at 100 µM in the series with PC-3 is 28.3 ± 2.56%.
On to `CC1=NN(c2ccccc2)C(=O)[C@@]12C(c1ccc([N+](=O)[O-])cc1)[C@@]21C(=O)N(c2ccccc2)N=C1C` (relative stereo) [4k, (5R*,6R*)-11-(4-Nitrophenyl)-4,10-dimethyl-2,8-diphenyl-2,3,8,9-tetraazadispiro[4.0.4.1]undeca-3,9-diene-1,7-dione], for which the melting point was 145.3 to 152.9 °C (dec.). For the same compound, in series [1], the “SI (Selectivity Index) = Citotoxic activity/Leishmanicidal activity” value is on record as 11.0. In series [1] (setting [3]), the IC50 came to 295 nM. Also, the IC50 in series [1] (setting [4]) came out at 300 ± 90 nM. In addition, the inhibition at 100 µM in the series on A-549 was found to be 26.7 ± 3.03%. In series [2], the “Genotoxic effect (DNA breaks) in comet assay” value was “biggest genotoxic effects; also recorded: strongest effects”; the “Comet tail length, mean (vary)” value worked out at 142780000; the “Comet tail length, median (Q50)” value came out at 128000000. For the same compound, in the series with PC-3, the inhibition at 100 µM is 46.7 ± 3.78% and the IC50 stood at 83.18 ± 0.45 µM.
`COC(=O)c1ccc(C2[C@@]3(C(=O)N(c4ccccc4)N=C3C)[C@]23C(=O)N(c2ccccc2)N=C3C)cc1` (relative stereo) [4q, (5R*,6R*)-Methyl-4[4,10-dimethyl-2,8-diphenyl-2,3,8,9-tetraazadispiro[4.0.4.1]undeca-3,9-diene-1,7-dione-11-yl]benzoate]: the melting point fell in the range of 162.5 to 163.9 °C. Besides, the “SI (Selectivity Index) = Citotoxic activity/Leishmanicidal activity” value in series [1] is given as 14.3. For the same compound, the IC50 in series [1] (setting [3]) is 277 nM. In series [1] (setting [4]), the IC50 was 280 ± 40 nM. Besides, the inhibition at 100 µM in the series on A-549 amounted to 13 ± 1.99%. In addition, in series [2], the “Genotoxic effect (DNA breaks) in comet assay” value is recorded as “highest genotoxic activity; also recorded: strongest effects”; the “Comet tail length, mean (vary)” value worked out at 172025000; the “Comet tail length, median (Q50)” value is given as 177500000. Moreover, in the series with PC-3, the inhibition at 100 µM was 50.5 ± 2.38% and the IC50 stood at 109 ± 2.77 µM.

Source of the values: article PMC8398714, “Synthesis and Evaluation of Biological Activities of Bis(spiropyrazolone)cyclopropanes: A Potential Application against Leishmaniasis” (Molecules, 2021).
